Values after ≈ are worked out from the molar mass of the structure shown.
Key:
[1] = Cochleate formation by light microscopy; type: physicochemical; design: key: or above (E!); excellent (E); good (G); poor (P); none (N)
Experimental: Lipid films containing binary mixtures of lipids were made from aliquots of stock solutions in chloroform:methanol (2:1). The solvent was evaporated with a stream of nitrogen gas and the lipids deposited as a film on the walls of a glass tube. The tubes were then placed in a vacuum dessicator for 3 hours. The films were kept under Argon at −20° C. The lipid films were hydrated with buffer solutions of OAK polymers with extensive vortexing, so as to have a lipid to polymer molar ratio of […].
Hydrated films were subjected to freeze thawing three times before imaging, to ensure proper equilibration of OAK with the multilamellar vesicles. A drop of this mixture was placed on a glass slide and covered with a glass coverslip. Light microscopy was carried out at room temperature using a Zeiss Axiovert 100M microscope with a Plan-Neofluar 100×/1.3 oil immersion objective. Images were analyzed with the Zeiss LSM image browser v2.8.
The morphology of the samples of different OAKs and different lipid mixtures could be classified into the following categories.
Table 5 presents the results of cochleate formation with different lipid mixtures of 1:10 lipid to polymer ratio, and a series of OAK polymers, indicated by their alternative denotations and SED ID Nos in parentheses. “Tm” denotes the melting temperature of the lipid bilayer afforded by the given lipid mixture. Some selected samples were further analyzed to confirm the results with freeze fracture electron microscopy for, as indicated in Table 5. Cochleate formation is defined as excellent (E) or above (E!), good (G), poor (P), or none (N) based on the aforementioned comparison, as well as on the abundance of cochleate structures observed in the light microscopy images. Lipid mixtures having a number in parenthesis are samples for which freeze-fracture electron microscopy analysis was conducted. Lipid mixtures having a “+” sign next to the number in parenthesis are samples which were confirmed by freeze-fracture electron microscopy as forming large cochleates with few vesicles and no inverted micellar (HII) morphology (samples 2, 3 and 5), or smaller cochleate structures mixed with other morphologies (samples 0 and 4). Lipid mixtures which contain only anionic lipids are marked with “^A”. Sample 0 is the lipid/OAK system used and presented in Example 1 hereinabove.

[2] = tested on: A. aureus; type: cell-based
Experimental: (§1) All bacteria were cultured in Luria-Bertani (LB) medium (10 g/l tryptone, 5 g/l yeast extract, 5 g/l NaCl, pH 7.4).
(§2) Bacteria were grown overnight in LB growth medium and diluted 10,000-fold in same medium.
(§3) Inhibition of proliferation was determined by optical density measurements (620 nm) after incubation overnight at 37° C.

[3] = tested on: E. coli; type: cell-based
Experimental: as §1, §2, §3

[4] = Molecular charge and RP-HPLC hydrophobicity of polymers; type: physicochemical; conditions: HPLC-RP gradient mobile phase
Description: Briefly, the polymers were synthesized while applying the Fmoc active ester chemistry on a fully automated, programmable peptide synthesizer (Applied Biosystems 433A). After cleavage from the resin, the crude product was extracted with 30% acetonitrile in water and purified by RP-HPLC (Alliance Waters), so as to obtain a chromatographic homogeneity higher than 95%. HPLC runs were typically performed on C18 columns (Vydac, 250 mm×4.6 or 10 mm) using a linear gradient of acetonitrile in water (1% per minute), both solvents containing 0.1% trifluoroacetic acid. The purified polymers were subjected to mass spectrometry (ZQ Waters) and NMR analyses to confirm their composition, and stored as a lyophilized powder at −20° C. Prior to being tested, fresh solutions were prepared in water, vortexed, sonicated, centrifuged and then diluted in the appropriate medium.
“Q” represents the overall molecular charge at physiological pH; “ACN (%)” represents the percent of acetonitrile in the HPLC-RP gradient mobile phase at which the polymer was eluted and which corresponds to the estimated hydrophobicity of the polymer. The column headed by “Ref.” indicates prior reference of the OAK if present, wherein a number in parentheses “(##)” corresponds to the SEQ ID NO in U.S. Pat. No. 7,504,381; the letter “R” indicates a polymer published in Radzishevsky I. S. et al. (2008), Chem. Biol., 15(4), pp. 354-362; and “New” indicates a novel polymer disclosed herein.

[5] = DMPC:TOCL 75:25, 1:10 lipid to polymer ratio
[6] = DMPE:DOPG 75:25, 1:10 lipid to polymer ratio
[7] = DMPE:TOCL 75:25, 1:10 lipid to polymer ratio
[8] = DMPG:TOCL 75:25 (anionic lipids only), 1:10 lipid to polymer ratio
[9] = DOPE:TOCL 75:25, 1:10 lipid to polymer ratio
[10] = DPPE:TOCL 75:25, 1:10 lipid to polymer ratio
[11] = POPC:TOCL 75:25, 1:10 lipid to polymer ratio
[12] = POPE:DOPG 75:25, 1:10 lipid to polymer ratio
[13] = POPE:DOPG:TOCL 80:15:5, 1:10 lipid to polymer ratio
[14] = POPE:TOCL 75:25, 1:10 lipid to polymer ratio
[15] = POPG:TOCL 75:25 (anionic lipids only), 1:10 lipid to polymer ratio
[16] = DMPE:TOCL75:25, 10:1 lipid to polymer ratio (Table 6)
[17] = POPE:TOCL 75:25, 10:1 lipid to polymer ratio (Table 6)

Structure (SMILES) | Cochleate formation [1, 5] | Cochleate formation [1, 6] | Cochleate formation [1, 7] | Cochleate formation [1, 8] | Cochleate formation [1, 9] | Cochleate formation [1, 10] | Cochleate formation [1, 11] | Cochleate formation [1, 12] | Cochleate formation [1, 13] | Cochleate formation [1, 14] | Cochleate formation [1, 15] | MIC A. aureus [2] [µM] | MIC E. coli [3] [µM] | ACN (%) (percent acetonitrile at elution, estimated hydrophobicity) [4] | Cochleate formation [1, 16] | Cochleate formation [1, 17]
CCCCCCCCCCCC(=O)N[C@@H](CCCCN)C(=O)NCCCCCCCC(=O)N[C@@H](CCCCN)C(=O)NCCCCCCCC(=O)N[C@@H](CCCCN)C(=O)NCCCCCCCC(=O)N[C@@H](CCCCN)C(=O)NCCCCCCCC(=O)N[C@@H](CCCCN)C(=O)NCCCCCCCC(=O)N[C@@H](CCCCN)C(N)=O [C12K-5α8, C12K(NC8K)5NH2] | N | E | P | G | N | E | P | G | N | G | P | 50 (≈ 83.7 µg/mL) | 3.1 (≈ 5.19 µg/mL) | 49.7 |  | 
CCCCCCCCCCCC(=O)N[C@@H](CCCCN)C(=O)NCCCCCCCC(=O)N[C@@H](CCCCN)C(=O)NCCCCCCCC(=O)N[C@@H](CCCCN)C(=O)NCCCCCCCC(=O)N[C@@H](CCCCN)C(=O)NCCCCCCCC(=O)N[C@@H](CCCCN)C(=O)NCCCCCCCC(=O)N[C@@H](CCCCN)C(=O)NCCCCCCCC(=O)N[C@@H](CCCCN)C(N)=O [C12K-6α8, C12K(NC8K)6NH2] |  | G |  |  |  |  |  |  |  | G |  | 50 (≈ 97.2 µg/mL) | 3.1 (≈ 6.03 µg/mL) | 50 |  | 
CCCCCCCCCCCC(=O)N[C@@H](CCCCN)C(=O)NCCCC(=O)N[C@@H](CCCCN)C(=O)NCCCC(=O)N[C@@H](CCCCN)C(=O)NCCCC(=O)N[C@@H](CCCCN)C(=O)NCCCC(=O)N[C@@H](CCCCN)C(=O)NCCCC(=O)N[C@@H](CCCCN)C(=O)NCCCC(=O)N[C@@H](CCCCN)C(=O)NCCCC(=O)N[C@@H](CCCCN)C(N)=O [C12K-7α4, C12K(NC4K)7NH2] |  |  |  |  |  |  |  |  |  |  |  | >50 | 12.5 (≈ 22.8 µg/mL) | 45.2 | G | G-E
CCCCCCCCCCCC(=O)N[C@@H](CCCCN)C(=O)NCCCCCCCCCCCC(=O)N[C@@H](CCCCN)C(=O)NCCCCCCCCCCCC(=O)N[C@@H](CCCCN)C(=O)NCCCCCCCCCCCC(=O)N[C@@H](CCCCN)C(=O)NCCCCCCCCCCCC(=O)N[C@@H](CCCCN)C(=O)NCCCCCCCCCCCC(=O)N[C@@H](CCCCN)C(=O)NCCCCCCCCCCCC(=O)N[C@@H](CCCCN)C(=O)NCCCCCCCCCCCC(=O)N[C@@H](CCCCN)C(N)=O [C12K-7α12, C12K(NC12K)7NH2] |  |  |  |  |  |  |  |  |  |  |  | >50 | >50 | 55.2 | P | N
CCCCCCCCCCCC(=O)NC(CCCCN)C(=O)NCCCCCCCC(=O)NC(CCCCN)C(=O)NCCCCCCCC(=O)NC(CCCCN)C(=O)NCCCCCCCC(=O)NC(CCCCN)C(=O)NCCCCCCCC(=O)NC(CCCCN)C(=O)NCCCCCCCC(=O)NC(CCCCN)C(=O)NCCCCCCCC(=O)NC(CCCCN)C(=O)NCCCCCCCC(=O)NC(CCCCN)C(=O)NCCCCCCCC(=O)NC(CCCCN)C(N)=O (stereo not drawn) [C12K-8α8, C12K(NC8K)8NH2] |  | G | E |  | G | E |  | N | N | G |  | >50 | 3.1 (≈ 7.7 µg/mL) | 48.5 |  | 
CCCCCCCCCCCC(=O)NC(CCCCN)C(=O)NCCCCCCCC(=O)NC(CCCCN)C(=O)NCCCCCCCC(=O)NC(CCCCN)C(=O)NCCCCCCCC(=O)NC(CCCCN)C(=O)NCCCCCCCC(=O)NC(CCCCN)C(=O)NCCCCCCCC(=O)NC(CCCCN)C(=O)NCCCCCCCC(=O)NC(CCCCN)C(=O)NCCCCCCCC(=O)NC(CCCCN)C(=O)NCCCCCCCC(=O)NC(CCCCN)C(=O)NCCCCCCCC(=O)NC(CCCCN)C(N)=O (stereo not drawn) [C12K-9α8, C12K(NC8K)9NH2] | N | E! | E | N | G | E | N | G |  | G | P | >50 | 6.25 (≈ 17.2 µg/mL) | 48.4 |  | 
CCCCCCCCCCCC(=O)NC(CCCCN)C(=O)NCCCCCCCC(=O)NC(CCCCN)C(=O)NCCCCCCCC(=O)NC(CCCCN)C(=O)NCCCCCCCC(=O)NC(CCCCN)C(=O)NCCCCCCCC(=O)NC(CCCCN)C(=O)NCCCCCCCC(=O)NC(CCCCN)C(=O)NCCCCCCCC(=O)NC(CCCCN)C(=O)NCCCCCCCC(=O)NC(CCCCN)C(=O)NCCCCCCCC(=O)NC(CCCCN)C(=O)NCCCCCCCC(=O)NC(CCCCN)C(=O)NCCCCCCCC(=O)NC(CCCCN)C(=O)NCCCCCCCC(=O)NC(CCCCN)C(N)=O (stereo not drawn) [C12K-11α8, C12K(NC8K)11NH2] |  | E | G |  | G | P | P | P |  | G | N | >50 | 3.1 (≈ 10.2 µg/mL) | 42.2 |  | 
NCCCCCCCCCCCC(=O)NC(CCCCN)C(=O)NCCCCCCCC(=O)NC(CCCCN)C(=O)NCCCCCCCC(=O)NC(CCCCN)C(=O)NCCCCCCCC(=O)NC(CCCCN)C(=O)NCCCCCCCC(=O)NC(CCCCN)C(=O)NCCCCCCCC(=O)NC(CCCCN)C(=O)NCCCCCCCC(=O)NC(CCCCN)C(=O)NCCCCCCCC(=O)NC(CCCCN)C(N)=O (stereo not drawn) [α12-7α8, NC12K(NC8K)7NH2] |  |  |  |  |  |  |  |  |  |  |  | 50 (≈ 111 µg/mL) | 12.5 (≈ 27.9 µg/mL) | 36.9 | E | G-E

Reference: US8951563B2, “Antibiotic drug delivery and potentiation” (Technion Research & Development Foundation Limited, priority 2009, dated 2015)
